US9056890B2, “WDHD1 peptides and vaccines including the same” (OncoTherapy Science Inc., priority 2010, dated 2015)
“Also recorded” adds a separate entry of the source.

Key:
[1] = test system: peptide-pulsed TISI cells; test: IFN-gamma ELISPOT assay on CTLs induced with peptide; format: cell-based, human; settings: CTLs from HLA-A*2402 positive donor after 3rd peptide stimulation, versus target cells not pulsed with peptide
Source text: Monocyte-derived dendritic cells (DCs) were used as antigen-presenting cells to induce cytotoxic T lymphocyte (CTL) responses against peptides presented on human leukocyte antigen (HLA). DCs were generated in vitro as described elsewhere (Nakahara S et al., Cancer Res 2003, 63(14): 4112-8). Specifically, peripheral blood mononuclear cells isolated from a normal volunteer (HLA-A*2402 positive) by Ficoll-Plaque (Pharmacia) solution were separated by adherence to a plastic tissue culture dish (Becton Dickinson) so as to enrich them as the monocyte fraction. The monocyte-enriched population was cultured in the presence of 1000 U/ml of granulocyte-macrophage colony-stimulating factor (R&D System) and 1000 U/ml of interleukin (IL)-4 (R&D System) in AIM-V Medium (Invitrogen) containing 2% heat-inactivated autologous serum (AS). After 7 days of culture, the cytokine-induced DCs were pulsed with 20 micro-g/ml of each of the synthesized peptides in the presence of 3 micro-g/ml of beta 2-microglobulin for 3 hr at 37 degrees C. in AIM-V Medium. The generated cells appeared to express DC-associated molecules, such as CD80, CD83, CD86 and HLA class II, on their cell surfaces (data not shown). These peptide-pulsed DCs were then inactivated by X-irradiated (20 Gy) and mixed at a 1:20 ratio with autologous CD8+ T cells, obtained by positive selection with CD8 Positive Isolation Kit (Dynal). These cultures were set up in 48-well plates (Corning); each well contained 1.5×10^4 peptide-pulsed DCs, 3×10^5 CD8+ T cells and 10 ng/ml of IL-7 (R&D System) in 0.5 ml of AIM-V/2% AS medium. Three days later, these cultures were supplemented with IL-2 (CHIRON) to a final concentration of 20 IU/ml. On day 7 and 14, the T cells were further stimulated with the autologous peptide-pulsed DCs. The DCs were prepared each time by the same way described above. CTL was tested against peptide-pulsed TISI cells after the 3rd round of peptide stimulation on day 21 (Tanaka H et al., Br J Cancer 2001, 84(1): 94-9; Umano Y et al., Br J Cancer 2001, 84(8): 1052-7; Uchida N et al., Clin Cancer Res 2004, 10(24): 8577-86; Suda T et al., Cancer Sci 2006, 97(5): 411-9; Watanabe T et al., Cancer Sci 2005, 96(8): 498-506).
(§1) Specifically, peptide-pulsed TISI (1×10^4/well) was prepared as stimulator cells. Cultured cells in 48 wells were used as responder cells. IFN-gamma ELISPOT assay and IFN-gamma ELISA assay were performed under manufacture procedure.

[2] = test system: peptide-pulsed TISI cells; test: IFN-gamma ELISA assay of CTL lines; format: cell-based, human; settings: target cells pulsed with corresponding peptide versus without peptide pulse
Procedure: CTLs were expanded in culture using the method similar to the one described by Riddell et al. (Walter E A et al., N Engl J Med 1995, 333(16): 1038-44; Riddell S R et al., Nat Med 1996, 2(2): 216-23). A total of 5×10^4 CTLs were suspended in 25 ml of AIM-V/5% AS medium with 2 kinds of human B-lymphoblastoid cell lines, inactivated by Mitomycin C, in the presence of 40 ng/ml of anti-CD3 monoclonal antibody (Pharmingen). One day after initiating the cultures, 120 IU/ml of IL-2 were added to the cultures. The cultures were fed with fresh AIM-V/5% AS medium containing 30 IU/ml of IL-2 on days 5, 8 and 11 (Tanaka H et al., Br J Cancer 2001, 84(1): 94-9; Umano Y et al., Br J Cancer 2001, 84(8): 1052-7; Uchida N et al., Clin Cancer Res 2004, 10(24): 8577-86; Suda T et al., Cancer Sci 2006, 97(5): 411-9; Watanabe T et al., Cancer Sci 2005, 96(8): 498-506).
as §1

[3] = test system: peptide-pulsed TISI cells; test: IFN-gamma ELISA assay of CTL clone established by limiting dilution; format: cell-based, human; settings: target cells pulsed with peptide versus not pulsed; listed as WDHD1-A24-9-844
Procedure: The dilutions were made to have 0.3, 1, and 3 CTLs/well in 96 round-bottomed micro titer plate (Nalge Nunc International). CTLs were cultured with 1×10^4 cells/well of 2 kinds of human B-lymphoblastoid cell lines, 30 ng/ml of anti-CD3 antibody, and 125 U/ml of IL-2 in a total of 150 micro-l/well of AIM-V Medium containing 5% AS. 50 micro-l/well of IL-2 were added to the medium 10 days later so to reach a final concentration of 125 U/ml IL-2. CTL activity was tested on the 14th day, and CTL clones were expanded using the same method as described above (Uchida N et al., Clin Cancer Res 2004, 10(24): 8577-86; Suda T et al., Cancer Sci 2006, 97(5): 411-9; Watanabe T et al., Cancer Sci 2005, 96(8): 498-506).
as §1

[4] = test system: COS7 cells transfected with both WDHD1 and HLA-A*2402; test: Specific CTL activity against target cells expressing WDHD1 and HLA-A*2402; format: cell-based, African green monkey; settings: COS7 expressing both WDHD1 and HLA-A*2402; listed as WDHD1-A24-9-844
Source text: (§2) The cDNA encoding an open reading frame of target genes or HLA-A*2402 was amplified by PCR. The PCR-amplified product was cloned into the expression vector. The plasmids were transfected into COS7, which is the target genes and HLA-A*2402-null cell line, using lipofectamine 2000 (Invitrogen) according to the manufacturer's recommended procedures. After 2 days from transfection, the transfected cells were harvested with versene (Invitrogen) and used as the target cells (5×10^4 cells/well) for CTL activity assay.
(§3) The established CTL lines and clone raised against each peptide were examined for the ability to recognize target cells that express WDHD1 and HLA-A*2402 molecule. […] COS7 cells transfected with either full length of WDHD1 or HLA-A* 2402 were prepared as the controls.

[5] = test system: COS7 cells transfected with either full length of WDHD1 or HLA-A*2402; test: Specific CTL activity against control target cells; format: cell-based, African green monkey; settings: COS7 expressing either HLA-A*2402 or WDHD1 only
Source text: as §2, §3

| Sequence | peptide specific CTL activity, IFN-gamma production [1] | IFN-gamma production of CTL lines [2] | also measured |
| --- | --- | --- | --- |
| EQFWRSVIF [SEQ ID NO: 19] | potent IFN-gamma production | – | – |
| GYAICGLAW [SEQ ID NO: 14] | potent IFN-gamma production | – | – |
| GYSNTATEW [SEQ ID NO: 13] | potent IFN-gamma production | potent IFN-gamma production | IFN-gamma production of CTL clone [3]: potent IFN-gamma production; specific CTL activity of CTL clone [4]: potent CTL activity; also recorded: specific CTL activity; specific CTL activity of CTL clone against controls [5]: no significant specific CTL activity |
| KQILHGDPL [SEQ ID NO: 8] | potent IFN-gamma production | – | – |
| KYASRSRKL [SEQ ID NO: 1] | – | – | peptide specific CTL activity, IFN-gamma production ([1]; listed as WDHD1-A24-9-798): not observed |
| RSVIFHNHL [SEQ ID NO: 6] | potent IFN-gamma production | – | – |
| SYLAWIGFSA [SEQ ID NO: 29] | potent IFN-gamma production | potent IFN-gamma production | – |
| TWSPCGQYL [SEQ ID NO: 12] | potent IFN-gamma production | potent IFN-gamma production | – |
